The source of these data is article PMC8781472, “Two Novel Palbociclib-Resorcinol and Palbociclib-Orcinol Cocrystals with Enhanced Solubility and Dissolution Rate” (Pharmaceutics, 2021).

Details of data set [1]: method as in doi:10.1021/acs.cgd.7b01281. Conditions: cited from earlier work.
A short description of data set [2]: In vitro cytotoxicity MTT assay. It is filed as cell-based, human. The following applies: human, normal HUVEC cell line. The method, then: (§1) The human umbilical vein endothelial cell line (HUVEC) was a gift from Prof. F Y Chen (Xiangya Hospital, Changsha, China). The cells were grown in DMEM (Hyclone, Logan, UT, USA) supplied with 10% fetal bovine serum (Hyclone, Logan, UT, USA) and 1% penicillin/streptomycin mixture. Furthermore, all the cells were cultured at a 37 ℃, 5% CO2 humidified incubator. The cytotoxicity activity of compounds PAL, PAL-RES and PAL-ORC for normal HUVEC cell line was assessed via the MTT assay. The cells were cultured at a density of 8000 cells/well in a 96 well plate. Five different concentrations (0, 0.1, 1, 10 and 100 μM) of compounds PAL, PAL-RES and PAL-ORC in DMSO were subsequently added to the wells then incubated under 5% CO2 at 37 °C for 48 h; 50 μL of MTT (2 mg/mL) was added to each well, and the cells were incubated for another 4 h. Next, the liquid in each well was removed, and DMSO (150 μL) was added. The absorbance (OD values) at 490 nm was measured by a microplate reader (Biotek, SYNERGY HTX, VT, USA). Each concentration was tested in triplicate.

The nature of data set [3]: Powder dissolution (paddle method). It is filed as physicochemical. Conditions: for Equilibrium dissolution: powder, 500 mL phosphate buffer pH 6.8, 37 °C, 50 rpm, 50 mg PAL equivalent. The method, then:
[…] PAL, PAL-RES, and PAL-ORC were ground and passed through a 200 mesh sieve. In total, 50 mg of PAL or a PAL equivalent amount of cocrystal were weighed for the powder dissolution experiment. At 5, 10, 15, 30, 45, 60, 90, 120, 180, 240, 300, 360, 480, 600, 720, 1080, 1440 min, taken out 1 mL of the dissolved sample and […] with an equal volume of fresh medium in order to maintain a constant dissolution system. The PAL concentration was measured using the same method as the IDR part. All the experiments were conducted in triplicate.

Data set [4] in a line: In vivo pharmacokinetic experiments in rats. Also noted: species or system Sprague−Dawley rats. Conditions: SD rats, single oral dose equivalent to 5 mg/kg PAL, plasma PAL. The method, then: The PK profiles of PAL, PAL-RES and PAL-ORC were determined in adult male Sprague−Dawley rats (SD rats, 200–250 g), which were commercially obtained from Pizhou Oriental Breeding Co., Ltd. (Xuzhou, China). All the experiments were approved by the Ethics and Experimental Animal Committee of Jiangsu Ocean University (Project identification code: 202100021). The rats were housed in standard cages with constant temperature and humidity, and a 12 h light−dark cycling condition was set. Before the commencement of the studies, all the rats were fasted overnight with free access to water for 12 h. Fifteen animals were randomly assigned to three groups (n = 5/group) and intragastrically administrated with PAL, PAL-RES, and PAL-ORC in 0.5% (w/v) aqueous sodium methyl cellulose solution, respectively. A dose equivalent to 5 mg/kg body weight of PAL was used to conduct the evaluation. After the oral administration, blood collections were performed at designated time points (0.5, 1, 2, 4, 6, 8, 12, 24 and 48 h) using centrifuge tubes containing EDTA-K2. Next, the plasma samples were obtained from the whole blood by centrifuging at 4000 rpm for 10 min. The plasma samples were prepared for HPLC analysis by washing with 300 μL methanol, and the PAL concentration was measured using the same method as described in “2.10. Intrinsic dissolution rate (IDR) experiments”. Moreover, the PK parameters were calculated by Phoenix WinNonlin 6.0 pharmacokinetic software package (Certara, Princeton, NJ, USA).

Data set [5] is described as follows: Stress testing (high temperature, high humidity, strong illumination), analysed by PXRD. It is filed as physicochemical. The following applies: high temperature (60 °C), high humidity (92.5% RH), strong illumination (4500 LX). The method, then:
The cocrystals were subjected to a high temperature (60 °C), high humidity (92.5% RH), and strong illumination (4500 lx) condition respectively for stress testing experiments. The samples were analyzed by PXRD to detect possible solid-state transformation at 0, 5, 10 days.

Data set [6] is described as follows: Accelerated stability testing, analysed by PXRD. Conditions: 40 °C/75% RH for 3 months. It is filed as physicochemical. As for the experimental part: For the physical stability studies, the powder samples of the cocrystals were exposed to accelerated condition (YSEI, China) with 40 °C/75% RH for three months; subsequently, the samples were analyzed by PXRD.

The test system of data set [7] is HUVEC. As to the kind of experiment: In vitro cytotoxicity MTT assay. It is filed as cell-based, human. The following applies: normal HUVEC cell line, 48 h. The method, then:
as §1

The nature of data set [8]: Intrinsic dissolution rate (IDR) experiments. It is filed as physicochemical. The following applies: for Dissolution rate compared with PAL: hydrochloric acid solution pH 1.0; for Increase of dissolution rate compared with PAL: phosphate buffer pH 6.8. As for the experimental part: In the IDR experiment, one side of the compact was sealed with melted wax, and the other side was not covered to contact with the solution. The temperature was set to 37 ℃, the paddle speed was 100 rpm, the samples were collected at the corresponding time points (phosphate buffer pH 6.8: 60, 120, 180, 240, 300, 360 min; acetic acid buffer pH 4.5: 1, 2, 3, 5, 7, 10 min; hydrochloric acid solution pH 1.0: […]) and supplemented with the same volume of culture base. Filtered the supernatant (0.22 μm) to remove undissolved particles. The PAL concentration was measured by an LC-20AD HPLC system (Shimadzu, Kyoto, Japan). At 40 °C, an Agilent ZORBAX Eclipse XDB-C18 column (250 mm × 4.6 mm, 5 μm, Agilent, Santa Clara, CA, USA) and a UV detector with a wavelength of 356 nm were used to separate the palbociclib. The mobile phase contained 0.1% acetic acid in methanol and water (80:20, v/v), the flow rate was 0.8 mL/min, and the isocratic elution was 10 min. The results were stated as the average of three replicated experiments.

Turning to `O=C1CCc2ccc(OCCCCN3CCN(c4cccc(Cl)c4Cl)CC3)cc2N1` [ARI, aripiprazole], in data set [1], the Maximum aripiprazole concentration is 1.6 mg/L.

For the molecule `Cc1cc(O)cc(O)c1` [ORC, orcinol], in data set [2], the IC50 at 48 h was above 100 µM.

On to `CC(=O)c1c(C)c2cnc(Nc3ccc(N4CCNCC4)cn3)nc2n(C2CCCC2)c1=O` [PAL, Palbociclib], for which, in data set [2], the IC50 at 48 h turned out to be 2.4 ± 0.07 µM. Further, the “Powder dissolution under acidic conditions” value in data set [3] (pH 1.0 or 4.5) is given as “dissolves completely at pH 1.0 or 4.5 within five minutes”. The Equilibrium dissolution in data set [3] was 20.09%. The Vd in data set [4] was determined as 20.48 L/kg. For the same molecule, in data set [4] (male, Sprague-Dawley, rat), the AUC(0-t) was determined as 2620 ng·h/mL, the Cmax stood at 347 ng/mL, the MRT came to 5.36 h and the Tmax turned out to be 4 h. The half-life in data set [4] (male, Sprague-Dawley, rat) is 19.9 h.

Consider `CC(=O)c1c(C)c2cnc(Nc3ccc(N4CCNCC4)cn3)nc2n(C2CCCC2)c1=O.Cc1cc(O)cc(O)c1` [PAL-ORC], for which the “Time physically stable under stress testing conditions” value in data set [5] was “at least 10 days”. Moreover, the “Physical stability (PXRD, phase transformation)” value in data set [6] is “physically stable”. In data set [7], the IC50 came out at 0.85 ± 0.13 µM. Moreover, in data set [8] (acetate buffer pH 4.5, 37 °C, 100 rpm), the “Intrinsic dissolution rate (slope of fitted IDR line)” value is on record as 0.53 mg/min/cm^2. In data set [8], the “Dissolution rate compared with PAL” value turned out to be 1.2 times and the “Increase of dissolution rate compared with PAL” value is recorded as “two times”. Also, in data set [3], the Equilibrium dissolution is 49.93%.

On to `CC(=O)c1c(C)c2cnc(Nc3ccc(N4CCNCC4)cn3)nc2n(C2CCCC2)c1=O.Oc1cccc(O)c1` [PAL-RES], for which the “Time physically stable under stress testing conditions” value in data set [5] was “at least 10 days”. Besides, the “Physical stability (PXRD, phase transformation)” value in data set [6] was “physically stable”. For the same molecule, the IC50 in data set [7] was found to be 4.02 ± 0.07 µM. In addition, in data set [8] (acetate buffer pH 4.5), the “Change of dissolution rate compared with PAL” value was “only a slight increase in dissolution rate”. In addition, in data set [8], the “Dissolution rate compared with PAL” value is given as 1.2 times and the “Increase of dissolution rate compared with PAL” value was “three times”. In addition, the Equilibrium dissolution in data set [3] is given as 60.22%.

For the molecule `Oc1cccc(O)c1` [RES, Resorcinol], the IC50 at 48 h in data set [2] is above 100 µM.
